# Results: patent publication US10294214B2, “Positive allosteric modulators of human melanocortin-4 receptor” (Vanderbilt University, priority 2016, dated 2019)
# Target: hMC4R (Homo sapiens (Human), UniProt P32245)
# Assay: LANCE cAMP assay, hMC4R PAM
# Format: cell-based
# Settings: HEK293 cells stably expressing the hMC4R; α-MSH at an EC20 dose
# Method: Analysis of pharmacological properties of compounds was performed using the LANCE cAMP kit (Perkin Elmer). HEK293 cells stably expressing the hMC4R were treated with PAM compounds at doses indicated, then incubated with an Alexa Fluor 647-labeled antibody in stimulation buffer according to manufacturer's instructions for 30 min at RT. Next, α-MSH was added (at an EC20 dose or at doses indicated for concentration-response curves), and plates were incubated for 15 minutes at RT, followed by the addition of 10 μL of detection mix. Plates were then incubated for 30 minutes at RT and read on a Viewlux (Perkin Elmer) using 618 and 671 nm emission filters. IBMX was not included in the assay.
# hMC4R, sequence (P32245 whole entry): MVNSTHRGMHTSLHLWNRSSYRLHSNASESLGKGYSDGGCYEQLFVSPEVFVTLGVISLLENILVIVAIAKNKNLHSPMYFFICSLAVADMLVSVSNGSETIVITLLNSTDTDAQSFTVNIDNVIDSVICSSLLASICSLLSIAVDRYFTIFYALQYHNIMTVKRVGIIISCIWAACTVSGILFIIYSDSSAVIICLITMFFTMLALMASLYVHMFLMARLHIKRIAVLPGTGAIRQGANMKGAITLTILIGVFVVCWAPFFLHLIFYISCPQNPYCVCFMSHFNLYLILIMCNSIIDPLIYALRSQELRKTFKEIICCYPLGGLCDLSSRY
Structure (SMILES),hMC4R PAM LANCE pEC50 Mean,hMC4R PAM LANCE Asym Max
COC(=O)c1[nH]c2ccc(Br)cc2c1NC(=O)CN1CCN(c2cccc(C)c2C)CC1 [Example 5],6.5,
COC(=O)c1[nH]c2cc(Br)ccc2c1NC(=O)CN1CCN(c2ccc(F)cc2)CC1 [Example 6],6.4,
CC1(C)CCCN(CC(=O)Nc2c(C(=O)C3CC3)[nH]c3ccc(Br)cc23)C1 [Example 7],6.4,
O=C(CN1CCC(c2ccccc2)CC1)Nc1c(C(=O)C2CC2)[nH]c2ccc(Br)cc12 [Example 8],6.5,
Cc1cccc(N2CCN(CC(=O)Nc3c(C(=O)C4CC4)[nH]c4ccc(Br)cc34)CC2)c1C [Example 9],6.4,
COC(=O)c1[nH]c2ccc(Br)cc2c1NC(=O)CN1CCN(c2cccc(OC)c2)C(C)C1 (stereo not drawn) [Example 13],6.3,
CC1(C)CCCN(CC(=O)Nc2c(C(=O)C3CC3)[nH]c3ccccc23)C1 [Example 23],6.1,
COC(=O)c1[nH]c2ccc(Br)cc2c1NC(=O)CN1CCCCC1 [Example 26],6,
COC(=O)c1[nH]c2ccc(C)cc2c1NC(=O)CN1CCN(c2cccc(C)c2C)CC1 [Example 27],5.9,
CCOC(=O)c1[nH]c2ccncc2c1NC(=O)CN1CCCC(C)(C)C1 [Example 28],5.8,
COC(=O)c1[nH]c2ccc(C)cc2c1NC(=O)CN1CCN(c2cccc(OC)c2)C(C)C1 (stereo not drawn) [Example 31],5.8,
CCOC(=O)c1[nH]c2ncccc2c1NC(=O)CN1CCCC(C)(C)C1 [Example 34],5.7,
COC(=O)c1[nH]c2ccc(Br)cc2c1NC(=O)CN1CCSCC1 [Example 36],5.8,
O=C(CN1CCC(C2CCCCC2)CC1)Nc1c(C(=O)C2CC2)[nH]c2ccccc12 [Example 37],6.6,
O=C(CN1CCC(C2CCCCC2)CC1)Nc1c(C(=O)C2CC2)[nH]c2ccc(Cl)cc12 [Example 38],6.6,
CC(=O)c1[nH]c2ccccc2c1NC(=O)CN1CCC(C2CCCC2)CC1 [Example 40],6.5,
O=C(CN1CCC(C2CCCC2)CC1)Nc1c(C(=O)C2CC2)[nH]c2ccccc12 [Example 41],6.4,
CC(=O)c1[nH]c2ccccc2c1NC(=O)CN1CCC(C2CCCCC2)CC1 [Example 42],6.5,

Structure (SMILES),hMC4R PAM LANCE pEC50 Mean,hMC4R PAM LANCE Asym Max
COC(=O)c1[nH]c2ccccc2c1NC(=O)CN1CCC(N(C)c2ccccc2)CC1 [Example 45],6.3,
CC1(C)CCCN(CC(=O)Nc2c(C(=O)C3CC3)[nH]c3ccc(S(C)(=O)=O)cc23)C1 [Example 48],6.3,
CC(C)=C1CCN(CC(=O)Nc2c(C(=O)C3CC3)[nH]c3ccccc23)CC1 [Example 50],6.1,
CC(=O)c1[nH]c2ccc(Br)cc2c1NC(=O)CN1CCCC(C)(C)C1 [Example 51],6,
CC1(C)CCCN(CC(=O)Nc2c(C(=O)C3CC3)[nH]c3ccc(N4CCOCC4)cc23)C1 [Example 53],5.7,
O=C(CN1CCC(C2CC2)CC1)Nc1c(C(=O)C2CC2)[nH]c2ccccc12 [Example 54],6,
CS(=O)(=O)c1ccc2[nH]c(C(=O)C3CC3)c(NC(=O)CN3CCC(C4CCCCC4)CC3)c2c1 [Example 58],7.1,
O=C(CN1CCC(C2CCCC2)CC1)Nc1c(C(=O)C2CC2)[nH]c2ccncc12 [Example 59],6.7,
COC(=O)c1[nH]c2ccc(N3CCOCC3C)cc2c1NC(=O)CN1CCC(C2CCCCC2)CC1 (stereo not drawn) [Example 60],6.7,
COC(=O)c1[nH]c2ccc(N3CCOCC3)cc2c1NC(=O)CN1CCC(C2CCCCC2)CC1 [Example 61],6.6,
O=C(CN1CCC(C2CCCCC2)CC1)Nc1c(C(=O)C2CC2)[nH]c2ccncc12 [Example 62],6.6,
O=C(CN1CCC(C2CCCC2)CC1)Nc1c(C(=O)C2CC2)[nH]c2ccc(Cl)cc12 [Example 63],6.7,
CC(=O)c1[nH]c2ccncc2c1NC(=O)CN1CCC(C2CCCC2)CC1 [Example 64],6.6,
O=C(CN1CCC2(CCCCC2)CC1)Nc1c(C(=O)C2CC2)[nH]c2ccccc12 [Example 65],6.5,
O=C(CN1CCC(C2CCCCC2)CC1)Nc1c(C(=O)C2CC2)[nH]c2ccc(N3CCOCC3)cc12 [Example 66],6.6,
O=C(CN1CCC(c2ccccc2)CC1)Nc1c(C(=O)C2CC2)[nH]c2ccncc12 [Example 67],6.5,
O=C(CN1CCC2(CCCC2)CC1)Nc1c(C(=O)C2CC2)[nH]c2ccncc12 [Example 68],6.4,

# Continued, values first:
hMC4R PAM LANCE pEC50 Mean,hMC4R PAM LANCE Asym Max,Structure (SMILES)
6.5,,COC(=O)c1[nH]c2ccc(Cl)cc2c1NC(=O)CN1CCC(c2ccccc2)CC1 [Example 4]
6.5,,Cc1cccc(N2CCN(CC(=O)Nc3c(C(=O)C4CC4)[nH]c4ccccc34)CC2)c1C [Example 10]
6.5,,COC(=O)c1[nH]c2ccccc2c1NC(=O)CN1CCC(c2ccccc2)CC1 [Example 11]
6.3,,COC(=O)c1[nH]c2ccccc2c1NC(=O)CN1CCN(c2cccc(C(F)(F)F)c2)CC1 [Example 12]
6.2,,O=C(CN1CCN(Cc2ccccc2)CC1)Nc1c(C(=O)C2CC2)[nH]c2ccc(Br)cc12 [Example 14]
6.2,,COC(=O)c1[nH]c2ccc(Cl)cc2c1NC(=O)CN1CCN(c2ccccc2)CC1 [Example 15]
6.2,,O=C(CN1CCC(c2ccccc2)CC1)Nc1c(C(=O)C2CC2)[nH]c2ccccc12 [Example 16]
6.2,,COC(=O)c1[nH]c2ccc(Br)cc2c1NC(=O)CN1CCN(c2ccccc2)CC1 [Example 17]
6.1,,CC(=O)c1[nH]c2ccccc2c1NC(=O)CN1CCC(Cc2ccccc2)CC1 [Example 18]
6.2,,CC(=O)c1[nH]c2ccccc2c1NC(=O)CN1CCC(c2ccccc2)CC1 [Example 19]
6.2,,COC(=O)c1[nH]c2ccc(Br)cc2c1NC(=O)C(C)N1CCC(Cc2ccccc2)CC1 (stereo not drawn) [Example 20]
6.2,,COC(=O)c1[nH]c2ccc(Cl)cc2c1NC(=O)CN1CCC(Cc2ccccc2)CC1 [Example 21]
6.2,,COC(=O)c1[nH]c2ccc(Br)cc2c1NC(=O)CN1CCC(Cc2ccccc2)CC1 [Example 22]
6,,COC(=O)c1[nH]c2ccccc2c1NC(=O)CN1CCC(Cc2ccccc2)CC1 [Example 24]
6,,COC(=O)c1[nH]c2ccccc2c1NC(=O)CN1CCC(Oc2ccccc2)CC1 [Example 25]
5.9,,COC(=O)c1[nH]c2ccccc2c1NC(=O)CN1CCCC2(CCC2)C1 [Example 29]
5.9,,COC(=O)c1[nH]c2ccccc2c1NC(=O)C(C)N1CCC(Cc2ccccc2)CC1 (stereo not drawn) [Example 30]
5.8,,COC(=O)c1[nH]c2ccccc2c1NC(=O)CN1CCC(Oc2ccccn2)CC1 [Example 32]
5.6,,CC(=O)c1[nH]c2ccccc2c1NC(=O)CN1CCN(Cc2ccccc2)CC1 [Example 33]
5.8,,COC(=O)c1[nH]c2ccc(Br)cc2c1NC(=O)CN1CCN(Cc2ccccc2)CC1 [Example 35]
6.6,,COC(=O)c1[nH]c2ccc(Br)cc2c1NC(=O)CN1CCC(c2ccccc2)CC1 [Example 39]
6.4,,CC(=O)c1[nH]c2ccc(Br)cc2c1NC(=O)CN1CCC(c2ccccc2)CC1 [Example 43]
6.4,,CC(=O)c1[nH]c2ccc(Br)cc2c1NC(=O)CN1CCC(Cc2ccccc2)CC1 [Example 44]
6.3,48,COC(=O)c1[nH]c2ccc(Br)cc2c1NC(=O)CN1CCN(C2c3ccccc3-c3ccccc32)CC1 [Example 46]
6.2,,COC(=O)c1[nH]c2ccc(Br)cc2c1NC(=O)CN1CCN(C(c2ccccc2)c2ccccc2)CC1 [Example 47]
6.2,,COC(=O)c1[nH]c2ccccc2c1NC(=O)CN1CCC(N2CCc3ccccc32)CC1 [Example 49]
5.9,,CC(=O)c1[nH]c2ccccc2c1NC(=O)CN1CCC(Oc2ccccc2)CC1 [Example 52]
5.8,,COC(=O)c1[nH]c2ccccc2c1NC(=O)CN1CCC(Nc2ccccc2)CC1 [Example 55]
5.9,,O=C(CN1CCC(c2ccccc2)CC1)Nc1c(C(=O)C2CCC2)[nH]c2ccccc12 [Example 56]
5.6,,COC(=O)c1[nH]c2ccccc2c1NC(=O)CN1CCN(Cc2ccccc2)C(C)(C)C1 [Example 57]
